This note sets out measurements from ChEMBL document CHEMBL1126045, “Alanine series of ovine corticotropin releasing factor (oCRF): a structure-activity relationship study” (J Med Chem, 1992).

The test has as its target Corticotropin releasing factor receptor (Rattus norvegicus) (UniProt P47866+P35353). Description: In vitro ability (peptide) to stimulate ACTH release by rat anterior pituitary cells relative to Ovine corticotropin releasing factor (oCRF). The test is classed as cell-based. On the set-up: unit not given here. To be noted: Pituitary gland cell.

Chain of Corticotropin releasing factor receptor (Rattus norvegicus) (P35353 whole entry, looked up): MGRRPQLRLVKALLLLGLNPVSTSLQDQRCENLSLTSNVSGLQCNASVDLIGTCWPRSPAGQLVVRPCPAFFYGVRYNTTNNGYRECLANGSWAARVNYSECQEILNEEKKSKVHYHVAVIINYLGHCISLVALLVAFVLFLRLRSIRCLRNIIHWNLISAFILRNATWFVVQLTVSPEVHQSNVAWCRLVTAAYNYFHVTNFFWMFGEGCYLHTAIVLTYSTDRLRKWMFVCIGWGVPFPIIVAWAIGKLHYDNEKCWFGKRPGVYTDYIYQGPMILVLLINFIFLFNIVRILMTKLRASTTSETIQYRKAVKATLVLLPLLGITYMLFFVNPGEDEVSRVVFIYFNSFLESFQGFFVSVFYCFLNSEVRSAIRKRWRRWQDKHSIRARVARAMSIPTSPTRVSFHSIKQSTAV
Chain of Corticotropin releasing factor receptor (Rattus norvegicus) (P47866 whole entry, looked up): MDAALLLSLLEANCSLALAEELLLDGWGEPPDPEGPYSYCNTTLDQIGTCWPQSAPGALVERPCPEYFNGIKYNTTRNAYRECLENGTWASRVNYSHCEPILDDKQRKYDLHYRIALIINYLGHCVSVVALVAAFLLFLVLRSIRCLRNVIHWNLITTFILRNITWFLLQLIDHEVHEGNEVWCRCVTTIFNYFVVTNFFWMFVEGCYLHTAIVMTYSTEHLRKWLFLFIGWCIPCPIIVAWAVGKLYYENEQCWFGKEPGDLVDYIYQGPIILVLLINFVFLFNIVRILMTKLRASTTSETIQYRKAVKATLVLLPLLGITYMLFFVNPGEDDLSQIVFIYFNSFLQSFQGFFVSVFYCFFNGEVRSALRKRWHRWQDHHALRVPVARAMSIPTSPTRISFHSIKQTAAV

`CC[C@H](C)[C@H](NC(=O)[C@H](C)NC(=O)[C@@H]1CCCN1C(=O)[C@H](CCC(=O)O)NC(=O)[C@H](CCC(N)=O)NC(=O)[C@@H](N)CO)C(=O)N[C@@H](CO)C(=O)N[C@@H](CC(C)C)C(=O)N[C@@H](CC(=O)O)C(=O)N[C@@H](CC(C)C)C(=O)N[C@H](C(=O)N[C@@H](Cc1ccccc1)C(=O)N[C@@H](Cc1c[nH]cn1)C(=O)N[C@@H](CC(C)C)C(=O)N[C@@H](CC(C)C)C(=O)N[C@@H](CCCN=C(N)N)C(=O)N[C@@H](CCC(=O)O)C(=O)N[C@H](C(=O)N[C@@H](CC(C)C)C(=O)N[C@@H](CCC(=O)O)C(=O)N[C@@H](CCSC)C(=O)N[C@H](C(=O)N[C@@H](CCCCN)C(=O)N[C@@H](C)C(=O)N[C@@H](CC(=O)O)C(=O)N[C@@H](CCC(N)=O)C(=O)N[C@@H](CC(C)C)C(=O)N[C@@H](C)C(=O)N[C@@H](CCC(N)=O)C(=O)N[C@@H](CCC(N)=O)C(=O)N[C@@H](C)C(=O)N[C@@H](Cc1c[nH]cn1)C(=O)N[C@@H](CO)C(=O)N[C@@H](CC(N)=O)C(=O)N[C@@H](CCCN=C(N)N)C(=O)N[C@@H](CCCCN)C(=O)N[C@@H](CC(C)C)C(=O)N[C@@H](CC(C)C)C(=O)N[C@@H](CC(=O)O)C(=O)N[C@H](C(=O)N[C@@H](C)C(N)=O)[C@@H](C)CC)[C@@H](C)O)C(C)C)[C@@H](C)O` returned a Relative potency of 0.6. With `CC[C@H](C)[C@H](NC(=O)[C@H](CC(=O)O)NC(=O)[C@H](CC(C)C)NC(=O)[C@H](CC(C)C)NC(=O)[C@H](CCCCN)NC(=O)[C@H](CCCN=C(N)N)NC(=O)[C@H](CC(N)=O)NC(=O)[C@H](CO)NC(=O)[C@H](Cc1c[nH]cn1)NC(=O)[C@H](C)NC(=O)[C@H](CCC(N)=O)NC(=O)[C@H](CCC(N)=O)NC(=O)[C@H](C)NC(=O)[C@H](CC(C)C)NC(=O)[C@H](CCC(N)=O)NC(=O)[C@H](CC(=O)O)NC(=O)[C@H](C)NC(=O)[C@H](CCCCN)NC(=O)[C@@H](NC(=O)[C@H](CCSC)NC(=O)[C@H](CCC(=O)O)NC(=O)[C@H](CC(C)C)NC(=O)[C@@H](NC(=O)[C@H](CCC(=O)O)NC(=O)[C@H](CCCN=C(N)N)NC(=O)[C@H](CC(C)C)NC(=O)[C@H](CC(C)C)NC(=O)[C@H](Cc1c[nH]cn1)NC(=O)[C@H](Cc1ccccc1)NC(=O)[C@@H](NC(=O)[C@H](C)NC(=O)[C@H](CC(=O)O)NC(=O)[C@H](CC(C)C)NC(=O)[C@H](CO)NC(=O)[C@@H](NC(=O)[C@@H]1CCCN1C(=O)[C@@H]1CCCN1C(=O)[C@H](CCC(=O)O)NC(=O)[C@H](CCC(N)=O)NC(=O)[C@@H](N)CO)[C@@H](C)CC)[C@@H](C)O)C(C)C)[C@@H](C)O)C(=O)N[C@@H](C)C(N)=O` the figure was 0.006; with `CC[C@H](C)[C@H](NC(=O)[C@H](CC(=O)O)NC(=O)[C@H](CC(C)C)NC(=O)[C@H](CC(C)C)NC(=O)[C@H](CCCCN)NC(=O)[C@H](CCCN=C(N)N)NC(=O)[C@H](CC(N)=O)NC(=O)[C@H](CO)NC(=O)[C@H](Cc1c[nH]cn1)NC(=O)[C@H](C)NC(=O)[C@H](CCC(N)=O)NC(=O)[C@H](CCC(N)=O)NC(=O)[C@H](C)NC(=O)[C@H](CC(C)C)NC(=O)[C@H](CCC(N)=O)NC(=O)[C@H](CC(=O)O)NC(=O)[C@H](C)NC(=O)[C@H](CCCCN)NC(=O)[C@@H](NC(=O)[C@H](CCSC)NC(=O)[C@H](CCC(=O)O)NC(=O)[C@H](CC(C)C)NC(=O)[C@@H](NC(=O)[C@H](CCC(=O)O)NC(=O)[C@H](CCCN=C(N)N)NC(=O)[C@H](CC(C)C)NC(=O)[C@H](CC(C)C)NC(=O)[C@H](Cc1c[nH]cn1)NC(=O)[C@H](Cc1ccccc1)NC(=O)[C@@H](NC(=O)[C@H](CC(C)C)NC(=O)[C@H](C)NC(=O)[C@H](CC(C)C)NC(=O)[C@H](CO)NC(=O)[C@@H](NC(=O)[C@@H]1CCCN1C(=O)[C@@H]1CCCN1C(=O)[C@H](CCC(=O)O)NC(=O)[C@H](CCC(N)=O)NC(=O)[C@@H](N)CO)[C@@H](C)CC)[C@@H](C)O)C(C)C)[C@@H](C)O)C(=O)N[C@@H](C)C(N)=O`, 0.004; with `CC[C@H](C)[C@H](NC(=O)[C@H](CC(=O)O)NC(=O)[C@H](CC(C)C)NC(=O)[C@H](CC(C)C)NC(=O)[C@H](CCCCN)NC(=O)[C@H](CCCN=C(N)N)NC(=O)[C@H](CC(N)=O)NC(=O)[C@H](CO)NC(=O)[C@H](Cc1c[nH]cn1)NC(=O)[C@H](C)NC(=O)[C@H](CCC(N)=O)NC(=O)[C@H](CCC(N)=O)NC(=O)[C@H](C)NC(=O)[C@H](CC(C)C)NC(=O)[C@H](CCC(N)=O)NC(=O)[C@H](CC(=O)O)NC(=O)[C@H](C)NC(=O)[C@H](CCCCN)NC(=O)[C@@H](NC(=O)[C@H](CCSC)NC(=O)[C@H](CCC(=O)O)NC(=O)[C@H](CC(C)C)NC(=O)[C@@H](NC(=O)[C@H](CCC(=O)O)NC(=O)[C@H](CCCN=C(N)N)NC(=O)[C@H](CC(C)C)NC(=O)[C@H](CC(C)C)NC(=O)[C@H](Cc1c[nH]cn1)NC(=O)[C@H](Cc1ccccc1)NC(=O)[C@@H](NC(=O)[C@H](CC(C)C)NC(=O)[C@H](CC(=O)O)NC(=O)[C@H](CC(C)C)NC(=O)[C@H](CO)NC(=O)[C@H](C)NC(=O)[C@@H]1CCCN1C(=O)[C@@H]1CCCN1C(=O)[C@H](CCC(=O)O)NC(=O)[C@H](CCC(N)=O)NC(=O)[C@@H](N)CO)[C@@H](C)O)C(C)C)[C@@H](C)O)C(=O)N[C@@H](C)C(N)=O`, 0.004. `CC[C@H](C)[C@H](NC(=O)[C@H](CC(=O)O)NC(=O)[C@H](CC(C)C)NC(=O)[C@H](CC(C)C)NC(=O)[C@H](CCCCN)NC(=O)[C@H](CCCN=C(N)N)NC(=O)[C@H](CC(N)=O)NC(=O)[C@H](CO)NC(=O)[C@H](Cc1c[nH]cn1)NC(=O)[C@H](C)NC(=O)[C@H](CCC(N)=O)NC(=O)[C@H](CCC(N)=O)NC(=O)[C@H](C)NC(=O)[C@H](CC(C)C)NC(=O)[C@H](CCC(N)=O)NC(=O)[C@H](CC(=O)O)NC(=O)[C@H](C)NC(=O)[C@H](CCCCN)NC(=O)[C@@H](NC(=O)[C@H](CCSC)NC(=O)[C@H](CCC(=O)O)NC(=O)[C@H](CC(C)C)NC(=O)[C@@H](NC(=O)[C@H](CCC(=O)O)NC(=O)[C@H](CCCN=C(N)N)NC(=O)[C@H](CC(C)C)NC(=O)[C@H](CC(C)C)NC(=O)[C@H](Cc1c[nH]cn1)NC(=O)[C@H](Cc1ccccc1)NC(=O)[C@H](C)NC(=O)[C@H](CC(C)C)NC(=O)[C@H](CC(=O)O)NC(=O)[C@H](CC(C)C)NC(=O)[C@H](CO)NC(=O)[C@@H](NC(=O)[C@@H]1CCCN1C(=O)[C@@H]1CCCN1C(=O)[C@H](CCC(=O)O)NC(=O)[C@H](CCC(N)=O)NC(=O)[C@@H](N)CO)[C@@H](C)CC)C(C)C)[C@@H](C)O)C(=O)N[C@@H](C)C(N)=O` displayed a Relative potency of 0.4. In the case of `CC[C@H](C)[C@H](NC(=O)[C@H](CC(=O)O)NC(=O)[C@H](CC(C)C)NC(=O)[C@H](CC(C)C)NC(=O)[C@H](CCCCN)NC(=O)[C@H](CCCNC(=N)N)NC(=O)[C@H](CC(N)=O)NC(=O)[C@H](CO)NC(=O)[C@H](Cc1cnc[nH]1)NC(=O)[C@H](C)NC(=O)[C@H](CCC(N)=O)NC(=O)[C@H](CCC(N)=O)NC(=O)[C@H](C)NC(=O)[C@H](CC(C)C)NC(=O)[C@H](CCC(N)=O)NC(=O)[C@H](CC(=O)O)NC(=O)[C@H](C)NC(=O)[C@H](CCCCN)NC(=O)[C@@H](NC(=O)[C@H](CCSC)NC(=O)[C@H](CCC(=O)O)NC(=O)[C@H](CC(C)C)NC(=O)[C@@H](NC(=O)[C@H](CCC(=O)O)NC(=O)[C@H](CCCNC(=N)N)NC(=O)[C@H](CC(C)C)NC(=O)[C@H](CC(C)C)NC(=O)[C@H](Cc1cnc[nH]1)NC(=O)[C@H](Cc1ccccc1)NC(=O)[C@@H](NC(=O)[C@H](CC(C)C)NC(=O)[C@H](CC(=O)O)NC(=O)[C@H](CC(C)C)NC(=O)[C@H](CO)NC(=O)[C@@H](NC(=O)[C@@H]1CCCN1C(=O)[C@@H]1CCCN1C(=O)[C@H](CCC(=O)O)NC(=O)[C@H](CCC(N)=O)NC(=O)[C@@H](N)CO)[C@@H](C)CC)[C@@H](C)O)C(C)C)[C@@H](C)O)C(=O)N[C@@H](C)C(N)=O`, the Relative potency was 1. As for “H-SQEPPISLDLTAHLLREVLEMTKADQLAQQAHSNRKLLDIA-NH2”, the figure is 0.006; as for “H-SQEPPISLDLTFALLREVLEMTKADQLAQQAHSNRKLLDIA-NH2”, 0.14; as for “H-SQEPPISLDLTFHLAREVLEMTKADQLAQQAHSNRKLLDIA-NH2”, 0.09. As for “H-SQEPPISLDLTFHLLAEVLEMTKADQLAQQAHSNRKLLDIA-NH2”, the figure is 0.02. As for “H-SQEPPISLDLTFHLLRAVLEMTKADQLAQQAHSNRKLLDIA-NH2”, the figure is 0.6; as for “H-SQEPPISLDLTFHLLREALEMTKADQLAQQAHSNRKLLDIA-NH2”, 0.5; as for “H-SQEPPISLDLTFHLLREVAEMTKADQLAQQAHSNRKLLDIA-NH2”, 0.09. Compound “H-SQEPPISLDLTFHLLREVLEATKADQLAQQAHSNRKLLDIA-NH2” had a Relative potency of 0.4. With “H-SQEPPISLDLTFHLLREVLEMAKADQLAQQAHSNRKLLDIA-NH2” the figure was 3.4. As for “H-SQEPPISLDLTFHLLREVLEMTAADQLAQQAHSNRKLLDIA-NH2”, the figure is 0.28; as for “H-SQEPPISLDLTFHLLREVLEMTKAAQLAQQAHSNRKLLDIA-NH2”, 1.7. In turn, “H-SQEPPISLDLTFHLLREVLEMTKADALAQQAHSNRKLLDIA-NH2” came in with a Relative potency of 1.1. On to “H-SQEPPISLDLTFHLLREVLEMTKADQLAQAAHSNRKLLDIA-NH2”, for which the Relative potency was found to be 0.8. Compound “H-SQEPPISLDLTFHLLREVLEMTKADQLAQQAASNRKLLDIA-NH2” returned a Relative potency of 4.5.

“H-SQEPPISLDLTFHLLREVLEMTKADQLAQQAHANRKLLDIA-NH2” came in with a Relative potency of 2. “H-SQEPPISLDLTFHLLREVLEMTKADQLAQQAHSARKLLDIA-NH2” had a Relative potency of 1.1. Take “H-SQEPPISLDLTFHLLREVLEMTKADQLAQQAHSNAKLLDIA-NH2”: the Relative potency came out at 0.02.

For the compound “H-SQEPPISLDLTFHLLREVLEMTKADQLAQQAHSNRALLDIA-NH2”, the Relative potency amounted to 0.8. As for “H-SQEPPISLDLTFHLLREVLEMTKADQLAQQAHSNRKALDIA-NH2”, the figure is 0.7; as for “H-SQEPPISLDLTFHLLREVLEMTKADQLAQQAHSNRKLLAIA-NH2”, 1.8; as for “H-SQEPPISLDLTFHLLREVLEMTKADQLAQQAHSNRKLLDAA-NH2”, 1.7.
